Measured values published in patent US8541598B2, “Biodegradable solvents for the chemical industry” (Dublin City University, priority 2007, dated 2013).
Entries after “also recorded” stand apart in the source; their conditions may differ. Where two headings read alike, the source gives them in different places.

What was measured:
[1] = Antimicrobial activity / minimum inhibitory concentrations on seven strains of bacteria; format: cell-based; details: read-out: MIC values
Experimental: (§1) Seven strains of bacteria were used in the assessment of the antimicrobial activity of the ILs claimed: 4 gram negative and three gram positive as shown below.
(§2) A wide concentration range was tested (0-20000 μg/ml). The concentrations screened for antibacterial activity are generally from 2 μg/ml to 1000 μg/ml (Table 6). […] The concentration range screened for the ILs containing ethers was up to 20000 μg/ml. At these high concentrations a lack of antibacterial activity is a significant result.

[2] = tested on: Pseudomonas aeruginosa, Escherichia coli, Klebsiella sp., Salmonella sp., Staphylococcus aureus, Enterococcus sp., Bacillus subtilis; assay: as above; format: cell-based; details: for toxicity / antibacterial activity in words: seven strains of bacteria; for MIC values: seven strains, not split, range tested 0-20000 μg/ml
Experimental: as §1, §2

[3] = seven strains, not split, range tested 0-20000 μg/ml

Structure (SMILES)	MIC [1, 3]	toxicity / antibacterial activity in words [2]	MIC [1]	toxicity / antibacterial activity in words ([2]; listed as KG 15)	MIC values [2]
CCOCCOC(=O)Cn1cc[n+](C)c1.[Br-] [KG8, 3-methyl-1-(2-[2-ethoxy]ethoxycarbonylmethyl)imidazolium bromide]	> 20 mg/mL	non-toxic			
CC(C)OCCOC(=O)Cn1cc[n+](C)c1.[Br-] [KG9, 3-methyl-1-(2-[2-propoxy]ethoxycarbonylmethyl)imidazolium bromide]	> 20 mg/mL	non-toxic			
CCC(C)OCCOC(=O)Cn1cc[n+](C)c1.[Br-] (centres unmarked) [KG10, 3-methyl-1-(2-[2-butoxy]ethoxycarbonylmethyl)imidazolium bromide]	> 20 mg/mL	non-toxic			
COCCOCCOC(=O)Cn1cc[n+](C)c1.[Br-] [KG12, 3-methyl-1-(2-[2-methoxyethoxy]ethoxycarbonylmethyl)imidazolium bromide]	> 20 mg/mL	non-toxic			
CCOCCOCCOC(=O)Cn1cc[n+](C)c1.[Br-] [KG13, 3-methyl-1-(2-[2-ethoxyethoxy]ethoxycarbonylmethyl)imidazolium bromide]		non-toxic	> 20 mg/mL		
CCCOCCOCCOC(=O)Cn1cc[n+](C)c1.[Br-] [KG14, 3-methyl-1-(2-[2-propoxyethoxy]ethoxycarbonylmethyl)imidazolium bromide]	> 20 mg/mL	non-toxic			
CCCCOCCOCCOC(=O)Cn1cc[n+](C)c1.[Br-] [KG15, 3-methyl-1-(2-[2-butoxyethoxy]ethoxycarbonylmethyl)imidazolium bromide]	> 20 mg/mL	non-toxic		low toxicity	
CCCCCOC(=O)Cn1cc[n+](C)c1.[Br-] [KG17, 3-Methyl-1-(pentoxycarbonylmethyl) imidazolium bromide]	> 20 mg/mL				
CCCCOC(=O)Cn1cc[n+](C)c1.[Br-] [KG19, 3-Methyl-1-(butoxycarbonylmethyl) imidazolium bromide]	> 20 mg/mL				
COCCOC(=O)Cn1cc[n+](C)c1.O=S(=O)([N-]S(=O)(=O)C(F)(F)F)C(F)(F)F [KG49, 3-methyl-1-(2-[2-methoxy]ethoxycarbonylmethyl)imidazolium NTf2]		non-toxic			10000 KG49 μg/ml
CCOCCOC(=O)C[n+]1ccn(C)c1.O=S(=O)([N-]S(=O)(=O)C(F)(F)F)C(F)(F)F [KG50, 3-methyl-1-(2-[2-ethoxy]ethoxycarbonylmethyl)imidazolium NTf2]		non-toxic			>20000 KG50 μg/ml
CCCOCCOC(=O)Cn1cc[n+](C)c1.O=S(=O)([N-]S(=O)(=O)C(F)(F)F)C(F)(F)F [KG51, 3-methyl-1-(2-[2-propoxy]ethoxycarbonylmethyl)imidazolium NTf2]		non-toxic			10000 KG51 μg/ml
CCCCOCCOC(=O)Cn1cc[n+](C)c1.O=S(=O)([N-]S(=O)(=O)C(F)(F)F)C(F)(F)F [KG52, 3-methyl-1-(2-[2-butoxy]ethoxycarbonylmethyl)imidazolium NTf2]		non-toxic			>20000 KG52 μg/ml
COCCOCCOC(=O)Cn1cc[n+](C)c1.O=S(=O)([N-]S(=O)(=O)C(F)(F)F)C(F)(F)F [KG53, 3-methyl-1-(2-[2-methoxyethoxy]ethoxycarbonylmethyl)imidazolium NTf2]		non-toxic			10000 KG53 μg/ml
CCOCCOCCOC(=O)C[n+]1ccn(C)c1.O=S(=O)([N-]S(=O)(=O)C(F)(F)F)C(F)(F)F [KG54, 3-methyl-1-(2-[2-ethoxyethoxy]ethoxycarbonylmethyl)imidazolium NTf2]		non-toxic			>20000 KG54 μg/ml
CCCOCCOCCOC(=O)C[n+]1ccn(C)c1.O=S(=O)([N-]S(=O)(=O)C(F)(F)F)C(F)(F)F [KG55, 3-methyl-1-(2-[2-propoxyethoxy]ethoxycarbonylmethyl)imidazolium NTf2]		non-toxic			>20000 KG55 μg/ml
CCCCOCCOCCOC(=O)Cn1cc[n+](C)c1.O=S(=O)([N-]S(=O)(=O)C(F)(F)F)C(F)(F)F [KG56, 3-methyl-1-(2-[2-butoxyethoxy]ethoxycarbonylmethyl)imidazolium NTf2]		non-toxic			>20000 KG56 μg/ml
CCCCOCCOC(=O)C[n+]1ccn(C)c1C.O=S(=O)([N-]S(=O)(=O)C(F)(F)F)C(F)(F)F [KG58, 2,3-dimethyl-1-(2-[2-butoxy]ethoxycarbonylmethyl)imidazolium NTf2]		non-toxic			>20000 KG58 μg/ml
COCCOCCOC(=O)Cn1cc[n+](C)c1C.O=S(=O)([N-]S(=O)(=O)C(F)(F)F)C(F)(F)F [KG59, 2,3-dimethyl-1-(2-[2-methoxyethoxy]ethoxycarbonylmethyl)imidazolium NTf2]		non-toxic			>20000 KG59 μg/ml

Structure (SMILES)	MIC [1, 3]	toxicity / antibacterial activity in words [2]	MIC [1]	toxicity / antibacterial activity in words ([2]; listed as KG 15)	MIC values [2]
CCCCOC(=O)Cn1cc[n+](C)c1.N#C[N-]C#N [KG73, 3-Methyl-1-(butoxycarbonylmethyl) imidazolium N(CN)2^−]					5000 KG73 μg/ml
COCCOC(=O)Cn1cc[n+](C)c1.N#C[N-]C#N [KG75, 3-methyl-1-(2-[2-methoxy]ethoxycarbonylmethyl)imidazolium N(CN)2]		non-toxic			>20000 KG75 μg/ml
CCOCCOC(=O)C[n+]1ccn(C)c1.N#C[N-]C#N [KG76, 3-methyl-1-(2-[2-ethoxy]ethoxycarbonylmethyl)imidazolium N(CN)2]		non-toxic			>20000 KG76 μg/ml
CCCOCCOC(=O)C[n+]1ccn(C)c1.N#C[N-]C#N [KG77, 3-methyl-1-(2-[2-propoxy]ethoxycarbonylmethyl)imidazolium N(CN)2]		non-toxic			>20000 KG77 μg/ml
CCCCOCCOC(=O)Cn1cc[n+](C)c1.N#C[N-]C#N [KG78, 3-methyl-1-(2-[2-butoxy]ethoxycarbonylmethyl)imidazolium N(CN)2]		non-toxic			>20000 KG78 μg/ml
COCCOCCOC(=O)Cn1cc[n+](C)c1.N#C[N-]C#N [KG79, 3-methyl-1-(2-[2-methoxyethoxy]ethoxycarbonylmethyl)imidazolium N(CN)2]		non-toxic			>20000 KG79 μg/ml
CCOCCOCCOC(=O)Cn1cc[n+](C)c1.N#C[N-]C#N [KG80, 3-methyl-1-(2-[2-ethoxyethoxy]ethoxycarbonylmethyl)imidazolium N(CN)2]		non-toxic			>20000 KG80 μg/ml
CCCOCCOCCOC(=O)Cn1cc[n+](C)c1.N#C[N-]C#N [KG81, 3-methyl-1-(2-[2-propoxyethoxy]ethoxycarbonylmethyl)imidazolium N(CN)2]		non-toxic			>20000 KG81 μg/ml
CCCCOCCOCCOC(=O)Cn1cc[n+](C)c1.N#C[N-]C#N [KG82, 3-methyl-1-(2-[2-butoxyethoxy]ethoxycarbonylmethyl)imidazolium N(CN)2]		non-toxic			>20000 KG82 μg/ml
CCCCOCCOC(=O)Cn1cc[n+](C)c1C.N#C[N-]C#N [KG84, 2,3-dimethyl-1-(2-[2-butoxy]ethoxycarbonylmethyl)imidazolium N(CN)2]		non-toxic			>20000 KG84 μg/ml
COCCOCCOC(=O)C[n+]1ccn(C)c1C.N#C[N-]C#N [KG85, 2,3-dimethyl-1-(2-[2-methoxyethoxy]ethoxycarbonylmethyl)imidazolium N(CN)2]		non-toxic			>20000 KG85 μg/ml
Cn1cc[n+](CC(=O)N2CCCC2)c1 [KG403, 3-methyl-1-(pyrrolidinylcarbonylmethyl)imidazolium octylsulfate, reference compound]	> 20 mg/mL				
Cc1n(C)cc[n+]1CC(=O)N1CCCC1 [KG404, 2,3-dimethyl-1-(pyrrolidinylcarbonylmethyl)imidazolium octylsulfate, reference compound]	> 20 mg/mL				
COC(C)N(C(=O)Cn1cc[n+](C)c1)C(C)OC.[Br-] (centres unmarked) [KG407, (3-methyl-1-[bis-1-methoxyethyl]carbamylmethyl)imidazolium bromide]		low toxicity; also recorded: non-toxic			>20000 KG407 μg/ml
C[n+]1ccn(CC(=O)N2CCCC2)c1.[Br-] [KG420, 3-methyl-1-(pyrrolidinylcarbonylmethyl)imidazolium bromide, reference compound]					>20000 KG420 μg/ml
Cc1n(CC(=O)N2CCCC2)cc[n+]1C.[Br-] [KG421, 2,3-dimethyl-1-(pyrrolidinylcarbonylmethyl)imidazolium bromide, reference compound]					>20000 KG421 μg/ml
COC(C)NC(=O)C[n+]1ccn(C)c1.[Br-] (centres unmarked) [KG422, (3-methyl-1-[1-methoxyethyl]carbamylmethyl)imidazolium bromide]		low toxicity; also recorded: non-toxic			>20000 KG422 μg/ml
CCC(NC(=O)Cn1cc[n+](C)c1)OC.[Br-] (centres unmarked) [KG423, (3-methyl-1-[1-methoxypropyl]carbamylmethyl)imidazolium bromide]		low toxicity			>20000 KG423 μg/ml
